Assay results published in patent US10413505B1, “Pharmaceutical compositions and methods of using the same” (priority 2017, dated 2019).

Experiments:
[1] = Example 3 urinary pharmacokinetics, normal hepatic function vs hepatic impairment; type: in vivo, human; settings: for Urine Recovery as % of Dose, Geomean / Urine Recovery as % of Dose, Mean: 0-32 h, single intranasal dose; for CLr Geomean / CLr Mean: Table 26
Experimental: Urine was collected prior to dosing and from 0-2, 2-4, 4-8, 8-12, 12-24, and 24-32 hours after beginning of dose application. […] Urinary pharmacokinetic parameters included total urinary recovery (μg), urinary recovery as a percentage of dose, and CLr.

[2] = Example 2 urinary pharmacokinetics, normal renal function vs severe renal impairment; settings: single intranasal 160 mg cocaine HCl; for 0 to 32 hour urinary recovery (geometric mean) / 0 to 32 hour urinary recovery (mean) / 0 to 32 hour urinary recovery (median): metabolites as cocaine equivalents
Experimental: For the urine analysis of cocaine, BE, and EME, individual urinary recoveries for each analyte were determined over each collection interval as the product of the urine concentration times the urine volume. The total recoveries were determined as the sum of the recoveries over all the intervals. Total urinary recoveries were also expressed as the percentage of the administered dose, after correction for the molecular weight of each analyte. The renal clearances of cocaine, BE, and EME were determined as the urinary recovery (in μg) divided by the plasma AUC over the same time interval (the longest period for which both plasma and urine measurements were available).
Urine was collected prior to dosing and from 0-2, 2-4, 4-8, 8-12, 12-24, and 24-32 hours after the beginning of dose application. […] Testing methods used were consistent with those used by inVentiv Health Clinical Lab, Inc., Miami, Fla., U.S.A. Urinary pharmacokinetic parameters included total urinary recovery (μg), urinary recovery as a percentage of dose, and CLr.

[3] = Example 1 single-dose plasma pharmacokinetics after intranasal administration; type: in vivo, human; settings: healthy subjects; single intranasal 160 mg cocaine HCl; plasma, >12 h after dosing
Experimental: Single-dose plasma and urinary pharmacokinetics of the pharmaceutical composition following intranasal administration was characterized in this study. This was a single-dose study in 30 healthy volunteers. The objective of the study was to examine the systemic pharmacokinetics of the pharmaceutical composition following acute, topical intranasal administration.
A single dose of a pharmaceutical composition was administered to both nostrils using cottonoid pledgets. […] Each pledget absorbed approximately 1 mL of pharmaceutical composition (i.e., 40 mg cocaine hydrochloride). Two soaked pledgets were placed into each nasal cavity of the subject and against the anterior septum for 20 minutes; thus, a total dose of 160 mg of cocaine hydrochloride was administered.
Blood samples were collected pre-dose (30 minutes before pledget insertion), and 7.5, 15, 20, 30, 45, 60, 75, 90, and 105 minutes and 2, 3, 4, 6, 8, 10, and 12 hours from the start of application of the pharmaceutical composition.
The effect of gender on Cmax, Tmax, AUClast, AUCinf, and t1/2 was determined. The effects of age, body weight, and BMI on AUClast were determined.

[4] = normal hepatic function, single intranasal 160 mg cocaine HCl
[5] = subjects with hepatic impairment
[6] = subjects with hepatic impairment, 32 hours post administration
[7] = subjects with hepatic impairment, Table 30
[8] = subjects with normal hepatic function
[9] = subjects with normal hepatic function, Table 29
[10] = normal renal function, listed as Benzoylecgonine
[11] = severe renal impairment, listed as Benzoylecgonine

CN1[C@H]2CC[C@@H]1[C@@H](C(=O)O)[C@@H](OC(=O)c1ccccc1)C2 [BE, benzoylecgonine]
Urine Recovery as % of Dose, Geomean ([1]; Impaired hepatic function): 2.74 % of Dose
Urine Recovery as % of Dose, Mean ([1]; Impaired hepatic function): 3.30 % of Dose
CLr Geomean ([1]; Impaired hepatic function): 2.59 L/h
CLr Mean ([1]; Impaired hepatic function): 2.90 L/h
Urine Recovery as % of Dose, Geomean ([1]; Normal hepatic function): 1.42 % of Dose
Urine Recovery as % of Dose, Mean ([1]; Normal hepatic function): 1.73 % of Dose
CLr Geomean ([1]; Normal hepatic function): 3.96 L/h
CLr Mean ([1]; Normal hepatic function): 4.30 L/h
0-32 h Urinary Recovery (geometric mean) [1, 4]: 1928.3 µg
0-32 h Urinary Recovery (mean) [1, 4]: 2359.75 µg
0-32 h Urinary Recovery (median) [1, 4]: 2098.9 µg
Renal Clearance, geometric mean [1, 5]: 43.11 mL/min
Renal Clearance, mean [1, 5]: 48.27 mL/min
Renal Clearance, median [1, 5]: 47.80 mL/min
0-32 h Urinary Recovery (geometric mean) [1, 6]: 3735.6 µg
0-32 h Urinary Recovery (mean) [1, 6]: 4500 µg
0-32 h Urinary Recovery (median) [1, 6]: 3283.7 µg
Renal Clearance, geometric mean [1, 7]: 43.11 mL/min
Renal Clearance, mean [1, 7]: 48.273 mL/min
Renal Clearance, median [1, 7]: 47.8 mL/min
Renal Clearance, geometric mean [1, 8]: 65.948 mL/min
Renal Clearance, mean [1, 8]: 71.585 mL/min
Renal Clearance, median [1, 8]: 58.237 mL/min
Renal Clearance, geometric mean [1, 9]: 65.95 mL/min
Renal Clearance, mean [1, 9]: 71.585 mL/min
Renal Clearance, median [1, 9]: 58.23 mL/min
0-32 h Urinary Recovery (geometric mean) ([2]; normal renal function): 2106 µg
0-32 h Urinary Recovery (mean) ([2]; normal renal function): 2764 µg
0-32 h Urinary Recovery (median) ([2]; normal renal function): 1483 µg
Renal Clearance, CLr (geometric mean) ([2]; normal renal function): 3.61 L/h
Renal Clearance, CLr (mean) ([2]; normal renal function): 3.77 L/h
Renal Clearance, CLr (median) ([2]; normal renal function): 4.01 L/h
Renal Clearance, geometric mean ([2]; normal renal function): 60.14 mL/min
Renal Clearance, mean ([2]; normal renal function): 62.78 mL/min
Renal Clearance, median ([2]; normal renal function): 66.86 mL/min
0 to 32 hour urinary recovery (geometric mean) ([2]; normal renal function): 1.55 % of administered dose
0 to 32 hour urinary recovery (mean) ([2]; normal renal function): 2.03 % of administered dose
0 to 32 hour urinary recovery (median) ([2]; normal renal function): 1.089 % of administered dose
0 to 32 hour urinary recovery (geometric mean) [2, 10]: 1.546 % of administered dose
0 to 32 hour urinary recovery (mean) [2, 10]: 2.029 % of administered dose
0-32 h Urinary Recovery (geometric mean) ([2]; severe renal impairment): 3126 µg
0-32 h Urinary Recovery (mean) ([2]; severe renal impairment): 3738 µg
0-32 h Urinary Recovery (median) ([2]; severe renal impairment): 2709 µg
Renal Clearance, CLr (geometric mean) ([2]; severe renal impairment): 0.854 L/h
Renal Clearance, CLr (mean) ([2]; severe renal impairment): 0.919 L/h
Renal Clearance, CLr (median) ([2]; severe renal impairment): 0.824 L/h
Renal Clearance, geometric mean ([2]; severe renal impairment): 14.2 mL/min
Renal Clearance, mean ([2]; severe renal impairment): 15.3 mL/min
Renal Clearance, median ([2]; severe renal impairment): 13.7 mL/min
0 to 32 hour urinary recovery (geometric mean) ([2]; severe renal impairment): 2.29 % of administered dose
0 to 32 hour urinary recovery (mean) ([2]; severe renal impairment): 2.74 % of administered dose
0 to 32 hour urinary recovery (median) ([2]; severe renal impairment): 1.988 % of administered dose
0 to 32 hour urinary recovery (geometric mean) [2, 11]: 2.294 % of administered dose
0 to 32 hour urinary recovery (mean) [2, 11]: 2.744 % of administered dose
plasma level not exceeded (metabolite not detectable in plasma) [3]: ≤ 100 ng/mL
